Source: patent US5876715A, “Antibodies that bind novel carbohydrate ligands (myelorollins) that cause E-selectin dependent cell rolling, and uses thereof” (The Biomembrane Institute, priority 1996, dated 1999)
Entries after “also recorded” stand apart in the source; their conditions may differ.

Tests used:
[1] = biological target: T1, E-selectin-Ig fusion protein (Homo sapiens, UniProt P16581); experiment: Direct binding of ganglioside-coated latex beads to E-selectin-Ig coated fluorescent beads by flow cytometry; conditions: ganglioside-coated latex beads mixed with E-selectin-Ig fluorescent beads
T1 construct: Fc is only a tag
T1 sequence (P16581 22-610): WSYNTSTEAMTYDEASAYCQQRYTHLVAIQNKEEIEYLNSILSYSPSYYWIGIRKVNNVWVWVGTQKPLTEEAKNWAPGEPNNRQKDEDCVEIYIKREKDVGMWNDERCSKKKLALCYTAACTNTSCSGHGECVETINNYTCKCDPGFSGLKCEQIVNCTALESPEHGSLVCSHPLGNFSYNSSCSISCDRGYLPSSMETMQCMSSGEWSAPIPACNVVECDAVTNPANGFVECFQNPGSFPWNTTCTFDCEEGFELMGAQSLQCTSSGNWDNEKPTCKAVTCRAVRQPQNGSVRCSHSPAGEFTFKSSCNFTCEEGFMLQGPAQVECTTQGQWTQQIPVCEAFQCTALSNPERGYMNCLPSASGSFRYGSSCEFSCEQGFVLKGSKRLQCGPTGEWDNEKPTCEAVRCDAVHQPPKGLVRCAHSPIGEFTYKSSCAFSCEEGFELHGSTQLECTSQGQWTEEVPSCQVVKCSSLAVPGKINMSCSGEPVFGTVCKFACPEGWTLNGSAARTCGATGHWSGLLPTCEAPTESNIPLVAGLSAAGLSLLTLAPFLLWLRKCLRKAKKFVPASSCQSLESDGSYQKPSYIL
Experimental: 5×10^6 polystyrene latex beads (diameter […]) (IDC Spheres™; IDC, Portland, Oreg.) were washed with ethanol by centrifugation. 1 μg of GSL in 50 μL of ethanol was added to the washed beads and the mixture was evaporated under nitrogen stream. The beads were resuspended in 1% BSA in PBS(+) and washed twice by centrifugation. Washed beads were blocked with 3% BSA in PBS(+) at room temperature for 2 hr. After centrifugation, beads were resuspended in 1% BSA in PBS(+) with 0.1% azide and stored at 4° C. Yellow-green fluorescent sulfated latex beads (diameter 1 μm) (Molecular Probes, Inc., Portland, Oreg.) were coated with goat anti-human IgG (Fc-fragment specific) antibody (Jackson Immunoresearch Lab, West Grove, Pa.) according to manufacturer's protocol. After washing 3× with PBS, beads were blocked with 3% BSA in PBS at 4° C. for 2 hr. Blocked beads (about 5×10^8) were mixed with 1.5 mL of E- or P-selectin-Ig fusion protein containing culture supernatant (about 1 μg/mL fusion protein) from CHO transfectants (Handa et al., 1995 Int. J. Oncol. 6:773-781) with a blood mixer at 4° C. for 6-18 hr. This mixing procedure was repeated 3 times more using new culture supernatant containing the fusion protein. After washing with PBS, beads were incubated in 1 mL PBS containing 50 μg human IgG (Jackson Immunoresearch). For preparation of control beads, human IgG was used at 1 μg/mL, instead of fusion protein. The ganglioside-coated beads were mixed with the fluorescent beads at room temperature for various durations. The resulting suspension was subjected to flow cytometric analysis. Conditions of each assay are detailed below.
Adhesion under conditions of E- or P-selectin-binding to various gangliosides was assessed by a novel, sensitive method using E- or P-selectin-coated fluorescent beads (FIGS. 2 and 3). Adhesion was determined by aggregation of polystyrene beads coated with myelorollin, and selectin-coated fluorescent beads. Gangliosides were coated on non-fluorescent polystyrene beads and mixed with fluorescent beads coated with E- or P-selectin in the presence or absence of EDTA. Since aggregation occurs under brief, strong agitation, the process is neither "static" nor "dynamic" adhesion, in which myelorollin is presented as immovable solid phase. In this system, solid phases containing both myelorollin and selectin are in dynamic condition. Binding was determined by cytofluorometry. Ganglioside fractions used in this experiment were the same as described in Table 1. In addition: Sdiy^2, sialosyl Le^x -Le^x (VI^3 NeuAcV^3 FucIII^3 FucnLc6 Cer); SLe^x (IV^3 NeuAcIII^3 FucnLc4 Cer). These designated structures are based on ^1 H NMR, mass spectrometry. Binding index was defined as mean fluorescence intensity (MFI) of ganglioside fraction divided by MFI of sialylparagloboside (IV^3 NeuAcnLc4 Cer).
Referring to FIG. 2: open columns, E-selectin-IgG beads. Lighter shaded columns, E-selectin-IgG beads in the presence of 5 mM EDTA. Darker shaded columns, P-selectin-IgG beads. Solid columns, human IgG control beads. The binding of myelorollin to E-selectin beads was completely abolished in the presence of EDTA; myelorollin was unable to bind to P-selectin.
Binding index was defined as MFI of sample divided by MFI of sialylparagloboside as in FIG. 2. Open columns, E-selectin-IgG beads preincubated with control mouse IgG. Solid columns, E-selectin-IgG beads preincubated with mAb E1C. […]

[2] = system: CHO cells permanently expressing E-selectin; conditions: TLC overlay, Stroud et al. 1995, 1996; cited from earlier work

binding to E-selectin beads (binding index, MFI relative to sialylparagloboside) [1]	binding to E-selectin beads (binding index, MFI relative to sialylparagloboside) ([1]; listed as Str. 1)	Substance	binding to E-selectin beads (binding index, MFI relative to sialylparagloboside) ([1]; listed as Str. 3)	E-selectin binding/adhesion under static conditions in previous studies [2]
		VI^3 NeuAcV^3 FucIII^3 FucnLc6 Cer [SLe^x -Le^x, reference compound]	did show binding; also recorded: bound to E-selectin	
no binding to E-selectin	no binding whatsoever	VI^3 NeuAcnLc6 Cer [Fr. 7]		
weak adhesion		X^3 NeuAcVII^3 FucnLc10 Cer [Fr. 12-2]		

Substance	binding to E-selectin beads (binding index, MFI relative to sialylparagloboside) [1]	binding to E-selectin beads (binding index, MFI relative to sialylparagloboside) ([1]; listed as Str. 1)	binding to E-selectin beads (binding index, MFI relative to sialylparagloboside) ([1]; listed as Str. 3)	E-selectin binding/adhesion under static conditions in previous studies [2]
X^3 NeuAcVII^3 FucV^3 FucnLc10 Cer [Fr. 13-1]	clear binding; also recorded: bind strongly to E-selectin			capable of binding E-selectin under static conditions
